Measured values from patent US20230293526A1, “METHOD FOR TREATING CANCER WITH A REVERSE TRANSCRIPTASE INHIBITOR” (PrimeFour Therapeutics, Inc., priority 2020, published 2023).

Test system: cancer cell lines
Test: Cancer cell proliferation activity of representative nucleosides, CellTiterGlo 72 h (Example 7, Tables 8 and 9)
Type: cell-based
Method: Dose response relationships on cell proliferation was assessed for representative nucleosides on cancer cell lines. Briefly, compound treatment of cells started one day after seeding with a final DMSO concentration of 0.1%, and was performed by nanodrop-dispensing using a Tecan Dispenser. 0.1% DMSO (solvent) and Staurosporine (10 μM) served as high control (100% viability) and low control (0% viability), respectively. Cells were cultured in the appropriate media. For the assays, cells were seeded in white cell culture-treated flat and clear bottom multiwell plates and incubated at 37° C. overnight before compound was added. After incubation for 72 h at 37° C. at 5% or 10% CO2 dependent on the medium, cell plates were equilibrated to room temperature for one hour, CellTiterGlo reagent (Promega) was added and luminescence was measured approximately an hour later using a luminometer.
Raw data were converted into percent cell viability relative to the high and low control, which were set to 100% and 0%, respectively.

- IC50 (72 h, 5637, 72 h (Table 9)): 450 nM
- IC50 (72 h, CLS439, 72 h (Table 9)): 2270 nM
- IC50 (72 h, HS729, 72 h (Table 9)): 580 nM
- IC50 (72 h, J82, 72 h (Table 9)): 760 nM
- IC50 (72 h, JAR, 72 h (Table 9)): > 50000 nM
- IC50 (72 h, MT3, 72 h (Table 9)): 80 nM
- IC50 (72 h, PC3, 72 h (Table 9)): 180 nM
- IC50 (72 h, RD, 72 h (Table 9)): 1030 nM
- IC50 (72 h, T24, 72 h (Table 9)): 290 nM
- IC50 (Homo sapiens, 22Rv1, 72 h, 22RV1, 72 h (Table 9)): 1330 nM
- IC50 (Homo sapiens, 786-0, 72 h, 786O, 72 h (Table 9)): 1070 nM
- IC50 (Homo sapiens, A204, 72 h, A204, 72 h (Table 9)): 20 nM
- IC50 (Homo sapiens, A549, 72 h, A549, 72 h (Table 9)): 440 nM
- IC50 (Homo sapiens, A673, 72 h, A673, 72 h (Table 9)): 1740 nM
- IC50 (Homo sapiens, A2780, 72 h, A2780, 72 h (Table 9)): 720 nM
- IC50 (Homo sapiens, A-375, 72 h, A375, 72 h (Table 9)): 710 nM
- IC50 (Homo sapiens, A-431, 72 h, A431, 72 h (Table 9)): 470 nM
- IC50 (Homo sapiens, ACHN, 72 h, 72 h (Table 9)): 390 nM
- IC50 (Homo sapiens, ASPC1, 72 h, ASPC1, 72 h (Table 9)): 580 nM
- IC50 (Homo sapiens, BT-20, 72 h, BT20, 72 h (Table 9)): 580 nM
- IC50 (Homo sapiens, BXPC-3, 72 h, BXPC3, 72 h (Table 9)): 540 nM
- IC50 (Homo sapiens, C-33-A, 72 h, C33A, 72 h (Table 9)): 240 nM
- IC50 (Homo sapiens, CAKI-1, 72 h, CAKI1, 72 h (Table 9)): 110 nM
- IC50 (Homo sapiens, COLO 205, 72 h, COLO205, 72 h (Table 9)): 210 nM
- IC50 (Homo sapiens, COLO-678, 72 h, COLO678, 72 h (Table 9)): 3760 nM
- IC50 (Homo sapiens, Ca-Ski, 72 h, CASKI, 72 h (Table 9)): 3960 nM
- IC50 (Homo sapiens, Caco-2, 72 h, CACO2, 72 h (Table 9)): > 50000 nM
- IC50 (Homo sapiens, Calu-6, 72 h, CALU6, 72 h (Table 9)): 720 nM
- IC50 (Homo sapiens, DLD-1, 72 h, DLD1, 72 h (Table 9)): 2650 nM
- IC50 (Homo sapiens, DU-145, 72 h, DU145, 72 h (Table 9)): 310 nM
- IC50 (Homo sapiens, EFO-21, 72 h, EFO21, 72 h (Table 9)): 790 nM
- IC50 (Homo sapiens, EJ-28, 72 h, EJ28, 72 h (Table 9)): 1530 nM
- IC50 (Homo sapiens, Granta-519, 72 h, GRANTA-519, 72 h (Table 9)): 70 nM
- IC50 (Homo sapiens, HCT-15, 72 h, HCT15, 72 h (Table 9)): 460 nM
- IC50 (Homo sapiens, HCT-116, 72 h, HCT116, 72 h (Table 9)): 470 nM
- IC50 (Homo sapiens, HEK293, 72 h, HEK293, 72 h (Table 9)): > 50000 nM
- IC50 (Homo sapiens, HL-60, 72 h, HL-60, 72 h (Table 9)): 1010 nM
- IC50 (Homo sapiens, HT-29, 72 h, HT29, 72 h (Table 9)): 1270 nM
- IC50 (Homo sapiens, HT-1080, 72 h, HT1080, 72 h (Table 9)): 380 nM
- IC50 (Homo sapiens, HeLa, 72 h, 72 h (Table 9)): 1000 nM
- IC50 (Homo sapiens, HepG2, 72 h, HEPG2, 72 h (Table 9)): 1000 nM
- IC50 (Homo sapiens, Hs-578T, 72 h, HS578T, 72 h (Table 9)): 970 nM
- IC50 (Homo sapiens, IGROV-1, 72 h, IGROV1, 72 h (Table 9)): 510 nM
- IC50 (Homo sapiens, IMR-90, 72 h, IMR90, 72 h (Table 9)): 1580 nM
- IC50 (Homo sapiens, JEG-3, 72 h, JEG3, 72 h (Table 9)): 3340 nM
- IC50 (Homo sapiens, JIMT-1, 72 h, JIMT1, 72 h (Table 9)): 190 nM
- IC50 (Homo sapiens, K562, 72 h, K-562, 72 h (Table 9)): 4450 nM
- IC50 (Homo sapiens, Kasumi 1, 72 h, KASUMI-1, 72 h (Table 9)): 270 nM
- IC50 (Homo sapiens, L-363, 72 h, L-363, 72 h (Table 9)): > 50000 nM
- IC50 (Homo sapiens, LoVo, 72 h, 72 h (Table 9)): 290 nM
- IC50 (Homo sapiens, MCF7, 72 h, MCF7, 72 h (Table 9)): 3170 nM
- IC50 (Homo sapiens, MDA-MB-231, 72 h, MDAMB231, 72 h (Table 9)): 100 nM
- IC50 (Homo sapiens, MDA-MB-435, 72 h, MDAMB435, 72 h (Table 9)): 1300 nM
- IC50 (Homo sapiens, MDA-MB-436, 72 h, MDAMB436, 72 h (Table 9)): 950 nM
- IC50 (Homo sapiens, MDA-MB-468, 72 h, MDAMB468, 72 h (Table 9)): 3110 nM
- IC50 (Homo sapiens, MG-63, 72 h, MG63, 72 h (Table 9)): 480 nM
- IC50 (Homo sapiens, MHH-ES-1, 72 h, MHHES1, 72 h (Table 9)): 1660 nM
- IC50 (Homo sapiens, MIA PaCa-2, 72 h, MIAPACA2, 72 h (Table 9)): 1150 nM
- IC50 (Homo sapiens, MINO, 72 h, 72 h (Table 9)): 60 nM
- IC50 (Homo sapiens, MV4-11, 72 h, MV4-11, 72 h (Table 9)): 840 nM
- IC50 (Homo sapiens, NCI-H23, 72 h, NCI-H23, 72 h (Table 9)): 720 nM
- IC50 (Homo sapiens, NCI-H82, 72 h, NCIH82, 72 h (Table 9)): 1150 nM
- IC50 (Homo sapiens, NCI-H292, 72 h, NCIH292, 72 h (Table 9)): 920 nM
- IC50 (Homo sapiens, NCI-H460, 72 h, NCIH460, 72 h (Table 9)): 770 nM
- IC50 (Homo sapiens, OVCAR-3, 72 h, OVCAR3, 72 h (Table 9)): 640 nM
- IC50 (Homo sapiens, OVCAR-4, 72 h, OVCAR4, 72 h (Table 9)): 8050 nM
- IC50 (Homo sapiens, PANC-1, 72 h, PANC1, 72 h (Table 9)): 620 nM
- IC50 (Homo sapiens, PLC-PRF-5, 72 h, PLCPRF5, 72 h (Table 9)): > 50000 nM
- IC50 (Homo sapiens, Panc1005, 72 h, PANC1005, 72 h (Table 9)): > 50000 nM
- IC50 (Homo sapiens, Ramos, 72 h, 72 h (Table 9)): 240 nM
- IC50 (Homo sapiens, SAOS-2, 72 h, SAOS2, 72 h (Table 9)): 110 nM
- IC50 (Homo sapiens, SF-268, 72 h, SF268, 72 h (Table 9)): 260 nM
- IC50 (Homo sapiens, SF-295, 72 h, SF295, 72 h (Table 9)): 3250 nM
- IC50 (Homo sapiens, SK-BR-3, 72 h, SKBR3, 72 h (Table 9)): 260 nM
- IC50 (Homo sapiens, SK-HEP1, 72 h, SKHEP1, 72 h (Table 9)): 320 nM
- IC50 (Homo sapiens, SK-LMS-1, 72 h, SKLMS1, 72 h (Table 9)): 860 nM
- IC50 (Homo sapiens, SK-MEL-5, 72 h, SKMEL5, 72 h (Table 9)): 6180 nM
- IC50 (Homo sapiens, SK-MEL-28, 72 h, SKMEL28, 72 h (Table 9)): 1320 nM
- IC50 (Homo sapiens, SK-N-AS, 72 h, SKNAS, 72 h (Table 9)): 1220 nM
- IC50 (Homo sapiens, SK-N-SH, 72 h, SKNSH, 72 h (Table 9)): > 50000 nM
- IC50 (Homo sapiens, SK-OV-3, 72 h, SKOV3, 72 h (Table 9)): 1460 nM
- IC50 (Homo sapiens, SNB-75, 72 h, SNB75, 72 h (Table 9)): 550 nM
- IC50 (Homo sapiens, SU-DHL10, 72 h, SU-DHL-10, 72 h (Table 9)): 560 nM
- IC50 (Homo sapiens, SU-DHL-6, 72 h, SU-DHL-6, 72 h (Table 9)): 310 nM
- IC50 (Homo sapiens, SW-620, 72 h, SW620, 72 h (Table 9)): 1140 nM
- IC50 (Homo sapiens, TE-671, 72 h, TE671, 72 h (Table 9)): 1020 nM
- IC50 (Homo sapiens, THP-1, 72 h, THP-1, 72 h (Table 9)): 650 nM
- IC50 (Homo sapiens, U2OS, 72 h, 72 h (Table 9)): 2450 nM
- IC50 (Homo sapiens, U-87 MG, 72 h, U87MG, 72 h (Table 9)): 400 nM
- IC50 (Homo sapiens, UMUC3, 72 h, UMUC3, 72 h (Table 9)): 1210 nM
- IC50 (Homo sapiens, UO-31, 72 h, UO31, 72 h (Table 9)): 550 nM
- IC50 (Homo sapiens, WSU-NHL, 72 h, 72 h (Table 9)): 150 nM
- IC50 (NCI-H358M, 72 h, NCIH358M, 72 h (Table 9)): 120 nM
- IC50 (PBMC, 72 h, 72 h (Table 9)): 710 nM
- IC50 (RD-ES, 72 h, RDES, 72 h (Table 9)): 1900 nM
Structure (SMILES): Nc1ccn([C@H]2C[C@H](O)[C@](CO)(CF)O2)c(=O)n1 [compound 32]
